{"source": "ChEMBL document CHEMBL4145521", "about": "“Regioselective synthesis of 3,4-diaryl-5-unsubstituted isoxazoles, analogues of natural cytostatic combretastatin A4” (Eur J Med Chem, 2018)", "assay_type_in_all_cases": "functional", "key": {"[1]": {"system": "HOP-92", "assay": "Cytotoxicity against human HOP92 cells assessed as cell growth at 0.01 uM incubated for 48 hrs by sulforhodamine B assay relative to control", "conditions": "HOP-92, 48 h, read-out: Activity"}, "[2]": {"system": "MDA-MB-435", "assay": "Cytotoxicity against human MDA-MB-435 cells assessed as cell growth at 0.01 uM incubated for 48 hrs by sulforhodamine B assay relative to control", "conditions": "MDA-MB-435, 48 h, read-out: Activity"}, "[3]": {"system": "SK-MEL-2", "assay": "Cytotoxicity against human SK-MEL-2 cells assessed as cell growth at 0.01 uM incubated for 48 hrs by sulforhodamine B assay relative to control", "conditions": "SK-MEL-2, 48 h, read-out: Activity"}, "[4]": {"system": "NCI/ADR-RES", "assay": "Cytotoxicity against human NCI/ADR-RES cells assessed as cell growth at 0.01 uM incubated for 48 hrs by sulforhodamine B assay relative to control", "conditions": "read-out: Activity"}, "[5]": {"system": "CAKI-1", "assay": "Cytotoxicity against human Caki1 cells assessed as cell growth at 0.01 uM incubated for 48 hrs by sulforhodamine B assay relative to control", "conditions": "CAKI-1, 48 h, read-out: Activity"}, "[6]": {"system": "DU-145", "assay": "Cytotoxicity against human DU145 cells assessed as cell growth at 0.01 uM incubated for 48 hrs by sulforhodamine B assay relative to control", "conditions": "DU-145, 48 h, read-out: Activity"}, "[7]": {"system": "MDA-MB-231", "assay": "Cytotoxicity against human MDA-MB-231 cells assessed as cell growth at 0.01 uM incubated for 48 hrs by sulforhodamine B assay relative to control", "conditions": "MDA-MB-231, 48 h, read-out: Activity"}, "[8]": {"system": "RPMI-8226", "assay": "Cytotoxicity against human RPMI8226 cells assessed as cell growth at 0.1 uM incubated for 48 hrs by sulforhodamine B assay relative to control", "conditions": "RPMI-8226, 48 h, read-out: Activity"}, "[9]": {"system": "HCT-116", "assay": "Cytotoxicity against human HCT116 cells assessed as cell growth at 0.1 uM incubated for 48 hrs by sulforhodamine B assay relative to control", "conditions": "HCT-116, 48 h, read-out: Activity"}, "[10]": {"system": "SF-268", "assay": "Cytotoxicity against human SF268 cells assessed as cell growth at 1 uM incubated for 48 hrs by sulforhodamine B assay relative to control", "conditions": "SF-268, 48 h, read-out: Activity"}, "[11]": {"system": "LOX IMVI", "assay": "Cytotoxicity against human LOXIMVI cells assessed as cell growth at 1 uM incubated for 48 hrs by sulforhodamine B assay relative to control", "conditions": "read-out: Activity"}, "[12]": {"system": "UACC-62", "assay": "Cytotoxicity against human UACC62 cells assessed as cell growth at 1 uM incubated for 48 hrs by sulforhodamine B assay relative to control", "conditions": "UACC-62, 48 h, read-out: Activity"}, "[13]": {"system": "OVCAR-4", "assay": "Cytotoxicity against human OVCAR4 cells assessed as cell growth at 1 uM incubated for 48 hrs by sulforhodamine B assay relative to control", "conditions": "OVCAR-4, 48 h, read-out: Activity"}, "[14]": {"system": "PC-3", "assay": "Cytotoxicity against human PC3 cells assessed as cell growth at 1 uM incubated for 48 hrs by sulforhodamine B assay relative to control", "conditions": "PC-3, 48 h, read-out: Activity"}, "[15]": {"system": "Hs-578T", "assay": "Cytotoxicity against human Hs 578T cells assessed as cell growth at 1 uM incubated for 48 hrs by sulforhodamine B assay relative to control", "conditions": "read-out: Activity"}, "[16]": {"system": "MDA-MB-468", "assay": "Cytotoxicity against human MDA-MB-468 cells assessed as cell growth at 1 uM incubated for 48 hrs by sulforhodamine B assay relative to control", "conditions": "MDA-MB-468, 48 h, read-out: Activity"}, "[17]": {"system": "HL-60(TB)", "assay": "Cytotoxicity against human HL-60(TB) cells assessed as cell growth at 10 uM incubated for 48 hrs by sulforhodamine B assay relative to control", "conditions": "HL-60, 48 h, read-out: Activity"}, "[18]": {"system": "NCI-H226", "assay": "Cytotoxicity against human NCI-H226 cells assessed as cell growth at 10 uM incubated for 48 hrs by sulforhodamine B assay relative to control", "conditions": "NCI-H226, 48 h, read-out: Activity"}, "[19]": {"system": "COLO 205", "assay": "Cytotoxicity against human COLO205 cells assessed as cell growth at 10 uM incubated for 48 hrs by sulforhodamine B assay relative to control", "conditions": "COLO 205, 48 h, read-out: Activity"}, "[20]": {"system": "Hs-578T", "assay": "Cytotoxicity against human Hs 578T cells assessed as cell growth at 10 uM incubated for 48 hrs by sulforhodamine B assay relative to control", "conditions": "read-out: Activity"}, "[21]": {"system": "MDA-MB-468", "assay": "Cytotoxicity against human MDA-MB-468 cells assessed as cell growth at 10 uM incubated for 48 hrs by sulforhodamine B assay relative to control", "conditions": "MDA-MB-468, 48 h, read-out: Activity"}, "[22]": {"system": "M14", "assay": "Cytotoxicity against human M14 cells assessed as cell growth at 100 uM incubated for 48 hrs by sulforhodamine B assay relative to control", "conditions": "M14, 48 h, read-out: Activity"}, "[23]": {"system": "OVCAR-5", "assay": "Cytotoxicity against human OVCAR5 cells assessed as cell growth at 100 uM incubated for 48 hrs by sulforhodamine B assay relative to control", "conditions": "OVCAR-5, 48 h, read-out: Activity"}, "[24]": {"system": "A498", "assay": "Cytotoxicity against human A498 cells assessed as cell growth at 100 uM incubated for 48 hrs by sulforhodamine B assay relative to control", "conditions": "A498, 48 h, read-out: Activity"}, "[25]": {"system": "ACHN", "assay": "Cytotoxicity against human ACHN cells assessed as cell growth at 100 uM incubated for 48 hrs by sulforhodamine B assay relative to control", "conditions": "read-out: Activity"}, "[26]": {"system": "CAKI-1", "assay": "Cytotoxicity against human Caki1 cells assessed as cell growth at 100 uM incubated for 48 hrs by sulforhodamine B assay relative to control", "conditions": "CAKI-1, 48 h, read-out: Activity"}, "[27]": {"system": "TK-10", "assay": "Cytotoxicity against human TK10 cells assessed as cell growth at 100 uM incubated for 48 hrs by sulforhodamine B assay relative to control", "conditions": "TK-10, 48 h, read-out: Activity"}, "[28]": {"system": "NCI-H322M", "assay": "Cytotoxicity against human NCI-H322M cells incubated for 48 hrs by sulforhodamine B assay"}, "[29]": {"system": "NCI-H460", "assay": "Cytotoxicity against human NCI-H460 cells incubated for 48 hrs by sulforhodamine B assay", "conditions": "NCI-H460, 48 h"}, "[30]": {"system": "HCT-116", "assay": "Cytotoxicity against human HCT116 cells incubated for 48 hrs by sulforhodamine B assay", "conditions": "HCT-116, 48 h"}, "[31]": {"system": "SF-539", "assay": "Cytotoxicity against human SF539 cells incubated for 48 hrs by sulforhodamine B assay", "conditions": "SF-539, 48 h"}}}
{"compound": "COc1ccc(-c2nocc2-c2cc(OC)c(OC)c(OC)c2)cc1", "values": [{"measurement": "growth at 0.01 µM", "setting": "[1]", "value": 98, "unit": "%"}, {"measurement": "growth at 0.01 µM", "setting": "[2]", "value": 79, "unit": "%"}, {"measurement": "growth at 0.01 µM", "setting": "[3]", "value": 99, "unit": "%"}, {"measurement": "growth at 0.01 µM", "setting": "[4]", "value": 92, "unit": "%"}, {"measurement": "growth at 0.01 µM", "setting": "[5]", "value": 90, "unit": "%"}, {"measurement": "growth at 0.01 µM", "setting": "[6]", "value": 99, "unit": "%"}, {"measurement": "growth at 0.01 µM", "setting": "[7]", "value": 98, "unit": "%"}, {"measurement": "growth at 0.1 µM", "setting": "[8]", "value": 82, "unit": "%"}, {"measurement": "growth at 0.1 µM", "setting": "[9]", "value": 21, "unit": "%"}, {"measurement": "growth at 1 µM", "setting": "[10]", "value": 45, "unit": "%"}, {"measurement": "growth at 1 µM", "setting": "[11]", "value": 43, "unit": "%"}, {"measurement": "growth at 1 µM", "setting": "[12]", "value": 27, "unit": "%"}, {"measurement": "growth at 1 µM", "setting": "[13]", "value": 49, "unit": "%"}, {"measurement": "growth at 1 µM", "setting": "[14]", "value": 18, "unit": "%"}, {"measurement": "growth at 1 µM", "setting": "[15]", "value": 31, "unit": "%"}, {"measurement": "growth at 1 µM", "setting": "[16]", "value": 3, "unit": "%"}, {"measurement": "growth at 10 µM", "setting": "[17]", "value": -8, "unit": "%"}, {"measurement": "growth at 10 µM", "setting": "[18]", "value": 67, "unit": "%"}, {"measurement": "growth at 10 µM", "setting": "[19]", "value": -27, "unit": "%"}, {"measurement": "growth at 10 µM", "setting": "[20]", "value": 28, "unit": "%"}, {"measurement": "growth at 10 µM", "setting": "[21]", "value": 3, "unit": "%"}, {"measurement": "growth at 100 µM", "setting": "[22]", "value": -5, "unit": "%"}, {"measurement": "growth at 100 µM", "setting": "[23]", "value": 21, "unit": "%"}, {"measurement": "growth at 100 µM", "setting": "[24]", "value": -33, "unit": "%"}, {"measurement": "growth at 100 µM", "setting": "[25]", "value": -13, "unit": "%"}, {"measurement": "growth at 100 µM", "setting": "[26]", "value": 14, "unit": "%"}, {"measurement": "growth at 100 µM", "setting": "[27]", "value": -10, "unit": "%"}, {"measurement": "GI50", "setting": "[28]; read-out: GI50", "value": 0.737, "unit": "µM"}, {"measurement": "LC50", "setting": "[28]; read-out: LC50", "value": "> 100", "unit": "µM"}, {"measurement": "TGI", "setting": "[28]; read-out: TGI", "value": "> 100", "unit": "µM"}, {"measurement": "GI50", "setting": "[28]; read-out: pGI50 (converted)", "value": 0.741, "unit": "µM"}, {"measurement": "LC50", "setting": "[28]; read-out: pLC50 (converted)", "value": "> 100", "unit": "µM"}, {"measurement": "TGI", "setting": "[28]; read-out: pTGI", "value": "> 100", "unit": "µM"}, {"measurement": "GI50", "setting": "[29]; read-out: GI50", "value": 0.0536, "unit": "µM"}, {"measurement": "CC50", "setting": "[29]; read-out: LC50 (the source's name)", "value": "> 100", "unit": "µM"}, {"measurement": "TGI", "setting": "[29]; read-out: TGI", "value": 12.7, "unit": "µM"}, {"measurement": "GI50", "setting": "[29]; read-out: pGI50 (converted)", "value": 0.0537, "unit": "µM"}, {"measurement": "CC50", "setting": "[29]; read-out: pLC50 (the source's name) (converted)", "value": "> 100", "unit": "µM"}, {"measurement": "TGI", "setting": "[29]; read-out: pTGI (converted)", "value": 12.6, "unit": "µM"}, {"measurement": "GI50", "setting": "[30]; read-out: GI50", "value": 0.039, "unit": "µM"}, {"measurement": "LC50 (concentration killing 50% of cells)", "setting": "[30]; read-out: LC50", "value": "> 100", "unit": "µM"}, {"measurement": "TGI", "setting": "[30]; read-out: TGI", "value": 14.7, "unit": "µM"}, {"measurement": "GI50", "setting": "[30]; read-out: pGI50 (converted)", "value": 0.0389, "unit": "µM"}, {"measurement": "LC50 (concentration killing 50% of cells)", "setting": "[30]; read-out: pLC50 (converted)", "value": "> 100", "unit": "µM"}, {"measurement": "TGI", "setting": "[30]; read-out: pTGI (converted)", "value": 14.8, "unit": "µM"}, {"measurement": "GI50", "setting": "[31]; read-out: GI50", "value": 0.173, "unit": "µM"}, {"measurement": "LC50 (concentration killing 50% of cells)", "setting": "[31]; read-out: LC50", "value": "> 100", "unit": "µM"}, {"measurement": "TGI", "setting": "[31]; read-out: TGI", "value": 13.7, "unit": "µM"}, {"measurement": "GI50", "setting": "[31]; read-out: pGI50 (converted)", "value": 0.174, "unit": "µM"}, {"measurement": "LC50 (concentration killing 50% of cells)", "setting": "[31]; read-out: pLC50 (converted)", "value": "> 100", "unit": "µM"}, {"measurement": "TGI", "setting": "[31]; read-out: pTGI (converted)", "value": 13.8, "unit": "µM"}]}
